Results published in ChEMBL document CHEMBL4699440, “Comprehensive review on the anti-bacterial activity of 1,2,3-triazole hybrids” (Eur J Med Chem, 2019).
Converted amounts (≈) assume the structure as drawn.

What was measured:
[1] = tested on: Escherichia coli; assay: Antibacterial activity against Escherichia coli assessed as inhibition zone at 10 mg/ml; type: functional; conditions: read-out: IZ
[2] = tested on: Salmonella typhi; assay: Antibacterial activity against Salmonella typhi assessed as inhibition zone at 10 mg/ml; type: functional, Salmonella enterica subsp. enterica serovar Typhi; conditions: Salmonella enterica, read-out: IZ
[3] = tested on: Pseudomonas aeruginosa; assay: Antibacterial activity against Pseudomonas aeruginosa assessed as inhibition zone at 10 mg/ml; type: functional; conditions: read-out: IZ
[4] = tested on: Klebsiella pneumoniae; assay: Antibacterial activity against Klebsiella pneumoniae assessed as inhibition zone at 10 mg/ml; type: functional; conditions: read-out: IZ
[5] = tested on: Proteus vulgaris; assay: Antibacterial activity against Proteus vulgaris assessed as inhibition zone at 10 mg/ml; type: functional; conditions: read-out: IZ
[6] = tested on: Aspergillus niger; assay: Antibacterial activity against Aspergillus niger MTCC 8189 by serial dilution method; type: functional
[7] = tested on: Pseudomonas aeruginosa; assay: Antibacterial activity against Pseudomonas aeruginosa MTCC 424 by serial dilution method; type: functional
[8] = tested on: Candida albicans; assay: Antibacterial activity against Candida albicans MTCC 227 by serial dilution method; type: functional
[9] = tested on: Staphylococcus epidermidis; assay: Antibacterial activity against Staphylococcus epidermidis MTCC 6880 by serial dilution method; type: functional
[10] = tested on: Bacillus subtilis; assay: Antibacterial activity against Bacillus subtilis MTCC 441 by serial dilution method; type: functional
[11] = tested on: Escherichia coli; assay: Antibacterial activity against Escherichia coli MTCC […] by serial dilution method; type: functional

| SMILES | zone of inhibition at 10000 µg/mL [1] | zone of inhibition at 10000 µg/mL [2] | zone of inhibition at 10000 µg/mL [3] | zone of inhibition at 10000 µg/mL [4] | zone of inhibition at 10000 µg/mL [5] | MIC [6] | MIC [7] | MIC [8] | MIC [9] | MIC [10] | MIC [11] |
| --- | --- | --- | --- | --- | --- | --- | --- | --- | --- | --- | --- |
| Clc1ccccc1OCc1cn(Cc2cc3ccccc3nc2Cl)nn1 | 7 mm | 7 mm | 7 mm | 7 mm | 7 mm | – | – | – | – | – | – |
| CC(=O)Nc1ccc(OCc2cn(Cc3cc4ccccc4nc3Cl)nn2)cc1 | 7 mm | 7 mm | 7 mm | 7 mm | 7 mm | – | – | – | – | – | – |
| Cc1ccc(OCc2cn(Cc3cc4cc(C)ccc4nc3Cl)nn2)cc1 | 7 mm | 7 mm | 7 mm | 7 mm | 7 mm | – | – | – | – | – | – |
| Cc1cc(O)c(C(=O)/C=C/c2ccc(OCc3cn(Cc4ccccc4[N+](=O)[O-])nn3)cc2)c(=O)o1 | – | – | – | – | – | 3 µM (≈ 1.47 µg/mL) | 3 µM (≈ 1.47 µg/mL) | 3 µM (≈ 1.47 µg/mL) | 3 µM (≈ 1.47 µg/mL) | 3 µM (≈ 1.47 µg/mL) | 3 µM (≈ 1.47 µg/mL) |
| COc1ccc2nc(Cl)c(Cn3cc(COc4ccc(NC(C)=O)cc4)nn3)cc2c1 | 7 mm | 7 mm | 7 mm | 7 mm | 7 mm | – | – | – | – | – | – |
| COc1ccc(-n2cc(COc3ccc(/C=C/C(=O)c4c(O)cc(C)oc4=O)cc3)nn2)cc1 | – | – | – | – | – | 3.4 µM (≈ 1.56 µg/mL) | 3.4 µM (≈ 1.56 µg/mL) | 3.4 µM (≈ 1.56 µg/mL) | 3.4 µM (≈ 1.56 µg/mL) | 3.4 µM (≈ 1.56 µg/mL) | 3.4 µM (≈ 1.56 µg/mL) |
| Cc1ccc2nc(Cl)c(Cn3cc(COc4ccc(Cl)cc4)nn3)cc2c1 | 7 mm | 7 mm | 7 mm | 7 mm | 7 mm | – | – | – | – | – | – |
| Cc1ccc2nc(Cl)c(Cn3cc(COc4ccc(Cl)c(C)c4)nn3)cc2c1 | 7 mm | 7 mm | 7 mm | 7 mm | 7 mm | – | – | – | – | – | – |
| Cc1ccc2nc(Cl)c(Cn3cc(COc4ccccc4)nn3)cc2c1 | 7 mm | 7 mm | 7 mm | 7 mm | 7 mm | – | – | – | – | – | – |
| COc1ccc2nc(Cl)c(Cn3cc(COc4ccc(Cl)cc4)nn3)cc2c1 | 7 mm | 7 mm | 7 mm | 7 mm | 7 mm | – | – | – | – | – | – |
| COc1ccc2nc(Cl)c(Cn3cc(COc4ccc(C)cc4)nn3)cc2c1 | 7 mm | 7 mm | 7 mm | 7 mm | 7 mm | – | – | – | – | – | – |
| Cc1cc(O)c(C(=O)/C=C/c2ccc(OCc3cn(Cc4ccccc4Br)nn3)cc2)c(=O)o1 | – | – | – | – | – | 3 µM (≈ 1.57 µg/mL) | 3 µM (≈ 1.57 µg/mL) | 3 µM (≈ 1.57 µg/mL) | 3 µM (≈ 1.57 µg/mL) | 3 µM (≈ 1.57 µg/mL) | 3 µM (≈ 1.57 µg/mL) |
| Cc1ccc(Cn2cc(COc3ccc(/C=C/C(=O)c4c(O)cc(C)oc4=O)cc3)nn2)cc1 | – | – | – | – | – | 3 µM (≈ 1.37 µg/mL) | 3 µM (≈ 1.37 µg/mL) | 3 µM (≈ 1.37 µg/mL) | 3 µM (≈ 1.37 µg/mL) | 3 µM (≈ 1.37 µg/mL) | 3 µM (≈ 1.37 µg/mL) |
| Clc1ccc(OCc2cn(Cc3cc4ccccc4nc3Cl)nn2)cc1 | 7 mm | 7 mm | 7 mm | 7 mm | 7 mm | – | – | – | – | – | – |
| COc1ccc2nc(Cl)c(Cn3cc(COc4ccc([N+](=O)[O-])cc4)nn3)cc2c1 | 7 mm | 7 mm | 7 mm | 7 mm | 7 mm | – | – | – | – | – | – |
| Cc1cc(O)c(C(=O)/C=C/c2ccc(OCc3cn(Cc4ccccc4C)nn3)cc2)c(=O)o1 | – | – | – | – | – | 3 µM (≈ 1.37 µg/mL) | 3 µM (≈ 1.37 µg/mL) | 3 µM (≈ 1.37 µg/mL) | 3 µM (≈ 1.37 µg/mL) | 3 µM (≈ 1.37 µg/mL) | 3 µM (≈ 1.37 µg/mL) |
| Cc1cc(O)c(C(=O)/C=C/c2ccc(OCc3cn(Cc4cccc(F)c4)nn3)cc2)c(=O)o1 | – | – | – | – | – | 3 µM (≈ 1.38 µg/mL) | 3 µM (≈ 1.38 µg/mL) | 3 µM (≈ 1.38 µg/mL) | 3 µM (≈ 1.38 µg/mL) | 3 µM (≈ 1.38 µg/mL) | 3 µM (≈ 1.38 µg/mL) |
| CC(=O)Nc1ccc(OCc2cn(Cc3cc4cc(C)ccc4nc3Cl)nn2)cc1 | 7 mm | 7 mm | 7 mm | 7 mm | 7 mm | – | – | – | – | – | – |
| Cc1cccc(Cn2cc(COc3ccc(/C=C/C(=O)c4c(O)cc(C)oc4=O)cc3)nn2)c1 | – | – | – | – | – | 3 µM (≈ 1.37 µg/mL) | 3 µM (≈ 1.37 µg/mL) | 3 µM (≈ 1.37 µg/mL) | 3 µM (≈ 1.37 µg/mL) | 3 µM (≈ 1.37 µg/mL) | 3 µM (≈ 1.37 µg/mL) |
| Cc1cc(OCc2cn(Cc3cc4ccccc4nc3Cl)nn2)ccc1Cl | 7 mm | 7 mm | 7 mm | 7 mm | 7 mm | – | – | – | – | – | – |
| COc1ccc2nc(Cl)c(Cn3cc(COc4ccccc4)nn3)cc2c1 | 7 mm | 7 mm | 7 mm | 7 mm | 7 mm | – | – | – | – | – | – |
| Cc1ccc2nc(Cl)c(Cn3cc(COc4ccc([N+](=O)[O-])cc4)nn3)cc2c1 | 7 mm | 7 mm | 7 mm | 7 mm | 7 mm | – | – | – | – | – | – |
| Cc1cc(O)c(C(=O)/C=C/c2ccc(OCc3cn(-c4ccc(Br)cc4)nn3)cc2)c(=O)o1 | – | – | – | – | – | 3 µM (≈ 1.52 µg/mL) | 3 µM (≈ 1.52 µg/mL) | 3 µM (≈ 1.52 µg/mL) | 3 µM (≈ 1.52 µg/mL) | 3 µM (≈ 1.52 µg/mL) | 3 µM (≈ 1.52 µg/mL) |
| Cc1cc(O)c(C(=O)/C=C/c2ccc(OCc3cn(Cc4ccccc4F)nn3)cc2)c(=O)o1 | – | – | – | – | – | 3 µM (≈ 1.38 µg/mL) | 3 µM (≈ 1.38 µg/mL) | 3 µM (≈ 1.38 µg/mL) | 3 µM (≈ 1.38 µg/mL) | 3 µM (≈ 1.38 µg/mL) | 3 µM (≈ 1.38 µg/mL) |
| Cc1ccc2nc(Cl)c(Cn3cc(COc4ccccc4Cl)nn3)cc2c1 | 7 mm | 7 mm | 7 mm | 7 mm | 7 mm | – | – | – | – | – | – |
| COc1ccc2nc(Cl)c(Cn3cc(COc4ccc(Cl)c(C)c4)nn3)cc2c1 | 7 mm | 7 mm | 7 mm | 7 mm | 7 mm | – | – | – | – | – | – |
| Clc1nc2ccccc2cc1Cn1cc(COc2ccccc2)nn1 | 7 mm | 7 mm | 7 mm | 7 mm | 7 mm | – | – | – | – | – | – |
| O=[N+]([O-])c1ccc(OCc2cn(Cc3cc4ccccc4nc3Cl)nn2)cc1 | 7 mm | 7 mm | 7 mm | 7 mm | 7 mm | – | – | – | – | – | – |
| COc1ccc2nc(Cl)c(Cn3cc(COc4ccccc4Cl)nn3)cc2c1 | 7 mm | 7 mm | 7 mm | 7 mm | 7 mm | – | – | – | – | – | – |
| Cc1ccc(OCc2cn(Cc3cc4ccccc4nc3Cl)nn2)cc1 | 7 mm | 7 mm | 7 mm | 7 mm | 7 mm | – | – | – | – | – | – |
